Data from ChEMBL document CHEMBL1155844, “Pyrazole inhibitors of coactivator associated arginine methyltransferase 1 (CARM1)” (Bioorg Med Chem Lett, 2008).
pIC50: −log10 of the molar value.

Experiments:
[1] = molecular target: T1, Histone-arginine methyltransferase CARM1 (Homo sapiens, UniProt Q86X55); test: Inhibition of human GST-tagged CARM1 by methylation assay
T1 sequence (Q86X55 whole entry): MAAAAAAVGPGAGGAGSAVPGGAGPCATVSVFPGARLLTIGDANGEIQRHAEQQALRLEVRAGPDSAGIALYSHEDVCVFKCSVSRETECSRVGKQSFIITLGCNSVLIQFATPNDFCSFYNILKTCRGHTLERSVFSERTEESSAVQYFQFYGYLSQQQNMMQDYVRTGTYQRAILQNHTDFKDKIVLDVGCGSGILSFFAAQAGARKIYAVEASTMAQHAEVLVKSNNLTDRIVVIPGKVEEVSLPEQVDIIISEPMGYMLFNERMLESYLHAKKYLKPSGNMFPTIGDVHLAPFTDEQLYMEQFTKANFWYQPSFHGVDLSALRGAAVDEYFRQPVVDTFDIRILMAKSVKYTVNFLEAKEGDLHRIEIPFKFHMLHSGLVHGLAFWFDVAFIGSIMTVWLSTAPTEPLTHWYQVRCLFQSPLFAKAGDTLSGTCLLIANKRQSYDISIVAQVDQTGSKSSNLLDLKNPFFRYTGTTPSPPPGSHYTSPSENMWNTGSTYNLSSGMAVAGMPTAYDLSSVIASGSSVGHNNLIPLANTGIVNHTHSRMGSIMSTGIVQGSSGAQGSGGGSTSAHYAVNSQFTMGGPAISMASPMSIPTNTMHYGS

[2] = molecular target: Protein arginine N-methyltransferase 1 (Homo sapiens, UniProt Q99873); test: Inhibition of GST-tagged PRMT1 by methylation assay
Protein arginine N-methyltransferase 1, sequence (Q99873 whole entry): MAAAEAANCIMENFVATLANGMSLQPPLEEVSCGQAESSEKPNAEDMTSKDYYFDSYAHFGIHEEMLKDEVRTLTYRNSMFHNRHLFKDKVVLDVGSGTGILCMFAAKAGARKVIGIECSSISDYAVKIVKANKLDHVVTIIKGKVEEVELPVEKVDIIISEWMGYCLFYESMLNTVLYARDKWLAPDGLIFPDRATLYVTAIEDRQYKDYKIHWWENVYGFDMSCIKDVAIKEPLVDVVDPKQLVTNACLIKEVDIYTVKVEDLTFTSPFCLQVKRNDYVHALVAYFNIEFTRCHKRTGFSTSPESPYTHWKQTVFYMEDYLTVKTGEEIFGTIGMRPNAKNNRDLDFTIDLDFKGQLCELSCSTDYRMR

[3] = molecular target: Protein arginine N-methyltransferase 3 (Homo sapiens, UniProt O60678); test: Inhibition of GST-tagged PRMT3 by methylation assay
Protein arginine N-methyltransferase 3, sequence (O60678 whole entry): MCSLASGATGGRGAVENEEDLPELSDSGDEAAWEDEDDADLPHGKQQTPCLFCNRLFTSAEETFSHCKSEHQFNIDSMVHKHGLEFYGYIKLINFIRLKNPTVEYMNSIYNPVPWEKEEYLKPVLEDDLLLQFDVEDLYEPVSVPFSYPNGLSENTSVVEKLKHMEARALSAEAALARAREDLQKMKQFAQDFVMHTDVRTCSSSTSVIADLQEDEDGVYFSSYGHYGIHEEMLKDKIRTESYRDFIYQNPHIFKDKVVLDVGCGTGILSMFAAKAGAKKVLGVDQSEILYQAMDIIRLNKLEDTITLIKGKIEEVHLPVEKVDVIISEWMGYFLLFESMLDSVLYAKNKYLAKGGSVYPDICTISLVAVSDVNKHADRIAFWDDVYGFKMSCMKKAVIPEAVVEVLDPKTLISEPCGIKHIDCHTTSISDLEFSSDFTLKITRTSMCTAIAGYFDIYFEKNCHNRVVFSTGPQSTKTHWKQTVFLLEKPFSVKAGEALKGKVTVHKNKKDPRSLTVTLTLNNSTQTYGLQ

| Compound | pIC50 [1] | pIC50 [2] | pIC50 [3] |
| --- | --- | --- | --- |
| CS(=O)(=O)c1ccccc1-c1ccc(NC(=O)c2cc(C(F)(F)F)nn2-c2cccc(CNC(=O)CN)c2)cc1 | 5.74 | – | – |
| CS(=O)(=O)c1ccccc1-c1ccc(NC(=O)c2cc(C(F)(F)F)nn2-c2cccc(CNC(=O)C(N)C(F)(F)F)c2)c(F)c1 (centres undefined) | < 4.52 | – | – |
| CNC(=O)c1cc(C(F)(F)F)nn1-c1cccc(CNC(=O)CN)c1 | 4.97 | – | – |
| C[C@H](N)C(=O)NCc1cccc(-n2nc(C(F)(F)F)cc2C(=O)N[C@@H](C)c2ccccc2)c1 | 5.15 | – | – |
| C[C@H](N)C(=O)NCc1ccc(-n2nc(C(F)(F)F)cc2C(=O)NCc2ccccc2)cc1 | < 4.30 | – | – |
| CS(=O)(=O)c1ccccc1-c1ccc(NC(=O)c2cc(C(F)(F)F)nn2-c2cccc(CNC(=O)CCN)c2)c(F)c1 | 4.77 | – | – |
| CC(C)(N)C(=O)NCc1cccc(-n2nc(C(F)(F)F)cc2C(=O)Nc2ccc(-c3ccccc3S(C)(=O)=O)cc2F)c1 | < 4.52 | – | – |
| C[C@@H](N)C(=O)NCc1cccc(-n2nc(C(F)(F)F)cc2C(=O)Nc2ccc(-c3ccccc3S(C)(=O)=O)cc2F)c1 | 4.70 | – | – |
| CN(C)C(=O)c1cc(C(F)(F)F)nn1-c1cccc(CNC(=O)CN)c1 | 4.53 | – | – |
| C[C@H](N)C(=O)NCc1ccccc1-n1nc(C(F)(F)F)cc1C(=O)NCc1ccccc1 | < 4.30 | – | – |
| C[C@H](N)C(=O)NCc1cccc(-n2nc(C(F)(F)F)cc2C(=O)N(C)Cc2ccccc2)c1 | 5.47 | – | – |
| C[C@H](N)C(=O)NCc1cccc(-n2nc(C(F)(F)F)cc2C(=O)NC2CCCCC2)c1 | 5.37 | – | – |
| NCC(=O)NCc1cccc(-n2nc(C(F)(F)F)cc2C(=O)Nc2ccccc2)c1 | 5.11 | – | – |
| CNCC(=O)NCc1cccc(-n2nc(C(F)(F)F)cc2C(=O)Nc2ccc(-c3ccccc3S(C)(=O)=O)cc2F)c1 | < 4.52 | – | – |

Stronger by pIC50 [1], values ahead:

| pIC50 [1] | pIC50 [2] | pIC50 [3] | Compound |
| --- | --- | --- | --- |
| 5.85 | – | – | NCC(=O)NCc1cccc(-n2nc(C(F)(F)F)cc2C(=O)Nc2ccc(-c3ccccc3)cc2)c1 |
| 5.88 | – | – | C[C@H](N)C(=O)NCc1cccc(-n2nc(C(F)(F)F)cc2C(=O)Nc2ccccc2)c1 |
| 5.96 | – | – | C[C@H](N)C(=O)NCc1cccc(-n2nc(C(F)(F)F)cc2C(=O)NCCc2ccccc2)c1 |
| 6.22 | – | – | C[C@H](N)C(=O)NCc1cccc(-n2nc(C(F)(F)F)cc2NC(=O)OCc2ccccc2)c1 |
| 6.64 | – | – | CS(=O)(=O)c1cccc(NC(=O)c2cc(C(F)(F)F)nn2-c2cccc(CNC(=O)CN)c2)c1 |
| 6.74 | – | – | C[C@H](N)C(=O)NCc1cccc(-n2nc(C(F)(F)F)cc2C(=O)N[C@H](C)c2ccccc2)c1 |
| 6.80 | – | – | C[C@H](N)C(=O)NCc1cccc(-n2nc(C(F)(F)F)cc2C(=O)Nc2ccc(-c3ccccc3S(C)(=O)=O)cc2F)c1 |
| 7.10 | < 4.60 | < 4.60 | C[C@H](N)C(=O)NCc1cccc(-n2nc(C(F)(F)F)cc2C(=O)NCc2ccccc2)c1 |
